Measured values: patent publication US6359196B1, “Germination-specific plant promoters” (priority 1999, dated 2002)

What was measured:
[1] = tested on: barley cystatin-1 gene promoter; test: Transient expression in barley aleurone protoplasts, cys1 promoter deletion constructs fused to β-glucuronidase, normalised to luciferase; format: cell-based; conditions: 1 μM phytohormone, 40-hour incubation at 20° C.; β-glucuronidase activity divided by luciferase activity
Protocol: Barley aleurone protoplasts were prepared as described in Example 4, and separate protoplast aliquots were co-transfected with plasmid pAHC18 carrying the luciferase gene under control of the gene promoter derived from a constitutively expressed maize ubitiquitin gene (Bruce et al., 1989, Proc. Natl. Acad. Sci. USA 86:9692-9696), and one of the eight expression plasmids containing 5' deletions of the cystatin-1 gene promoter, as described above. The molar concentration of pAHC 18 was half of that of the reporter plasmid directing expression of β-glucuronidase. Incubation of the protoplasts with 1 μM gibberellic acid or 1 μM abscisic acid were performed in order to analyse possible, regulative effects of the phytohormones on […] gene expression, and identify the location of possible hormone responsive cis-acting gene elements. After a 40-hour incubation at 20° C., the protoplasts were harvested and the level of β-glucuronidase and luciferase activities determined as described by Leah et al. (1994, supra). The relative β-glucuronidase activity in individual samples was calculated by dividing the measured activity by the measured luciferace activity, thereby allowing differences in transformation efficiency to be corrected for.

[2] = tested on: barley α-glucosidase gene promoter; test: Transient expression in barley aleurone protoplasts, constructs with the α-glucosidase gene promoter; format: cell-based; conditions: protoplasts incubated in the presence of gibberellic acid, 25° C., 40 hours
Text: It is possible to evaluate the expression levels directed by the barley α-glucosidase gene promoter by several methods. One such method is by transient expression assays performed with protoplasts prepared from aleurone layers of the barley cultivar Himalaya. This approach is not only used to evaluate the ability of different promoters to function in barley endosperm-derived tissues, including the aleurone tissue, but also to determine whether an expressed protein is secreted from the plant cell or whether the protein remains in the cell cytoplasm.
Protoplasts are transfected with a gene cassette of interest and incubated to allow the introduced gene to be expressed, and the corresponding protein allowed to accumulate in the cell or in the surrounding liquid medium. Following incubation at 25° C. for 40 hours in the presence or absence of gibberellic acid, the cells and the growth medium are assayed for the presence of the protein encoded by the transgene in order to determine the efficiency of the promoter which drives transgene expression.
A protocol for the preparation and transfection of barley aleurone protoplasts has been published by Skriver et al., (1991, supra). […]

| activity derived from heterologously expressed enzymes [2] | Compound | relative expression of β-glucuronidase [1] |
| --- | --- | --- |
|  | CC1=CC(=O)CC(C)(C)[C@@]1(O)/C=C/C(C)=C\C(=O)O [abscisic acid] | increased |
| enhanced levels of activity | C=C1C[C@]23C[C@@]1(O)CC[C@H]2[C@@]12C=C[C@H](O)[C@@](C)(C(=O)O1)[C@H]2[C@@H]3C(=O)O [gibberellic acid] | slight depression |
